Where two headings read alike, the source gives them in different places.
Experiments:
[1] = biological target: T1, His-Avi-TEV-mSTING (138-341) mouse wild-type protein (Mus musculus, UniProt Q3TBT3); assay: Protein thermal shift assay, STING C-terminal binding domain protein; conditions: test compound final concentration 0.5 mM
T1 construct: made in house; host or cells: E. coli Rosetta 2 (DE3), co-expressed with BirA (1-321)
Method: Each of these expression strains was added to a TB medium containing 100 μg/mL ampicillin, 50 μg/mL streptomycin, and 30 μg/mL kanamycin, cultured at 37° C., then exposed to 100 μM IPTG for inducible expression, and further cultured at 16° C.
The culture solution was centrifuged, and the resulting bacterial cells were suspended in 50 mM HEPES pH 8.0, 500 mM NaCl, 20 mM imidazole, 1 mM DTT, 5% (w/v) glycerol, Complete EDTA free, and then subjected to freeze-thawing. After addition of Lysozyme and DNase I, proteins were extracted by ultrasonic disintegration, and centrifugation was performed and the resulting supernatant was collected. The supernatant obtained was purified by using an AKTA express chromatography system (GE Healthcare, IL, US) with a HisTrap FF column (GE Healthcare), and eluted with buffer (20 mM HEPES pH 7.5, 120 mM NaCl, 20% Glycerol, 0.8 mM DTT) through a Superdex 200 16/60 column (GE Healthcare). […] The protein concentrations were measured by using a NanoDrop2000 (Thermo Fisher Scientific, MA, US), and the proteins were cryopreserved at −80° C. until use.
The binding ability of each compound to the STING C-terminal binding domain proteins was evaluated by protein thermal shift assay, which uses the elevation of thermal denaturation temperature of protein as an index.
Specifically, 3 μL of a test compound (final concentration: 0.5 mM), 3 μL of SYPRO Orange Protein Gel Stain (Thermo Fisher Scientific) (final concentration: 20-fold), and 6 μL of a STING protein were mixed with use of assay buffer (20 mM Tris-HCl pH 7.5, 120 mM NaCl) in a 384-well real-time PCR plate, and mixed together with a plate shaker. With a real-time PCR system (Thermo Fisher Scientific), the temperature was increased from 25° C. to 95° C. at a rate of 0.03° C./sec, and the thermal denaturation temperature of the protein was measured by using fluorescence emitted from SYPRO Orange as an index. From the measurement acquired, Tm (the midpoint of the unfolding transition) (° C.) was determined as a temperature at which the increase rate of fluorescence intensity was maximized by using the analysis software Protein Thermal Shift software (Thermo Fisher Scientific). The Tm value for a well with no compound was subtracted from the Tm value for each test compound to calculate the Tm shift caused by the compound as ΔTm (° C.).

Human STING = Human STING (Homo sapiens, UniProt Q86WV6, G230A/H232R/R293Q/R71H); assay: Reporter gene assay, human STING agonist activity, THP1-Dual cells (HAQ-mutated), IRF pathway; conditions: 24 hours, 100% = maximum count with ML-RR-CDA·2Na+
Sequence of Human STING (Q86WV6 whole entry R71H/G230A/H232R/R293Q, the tested form may be a part): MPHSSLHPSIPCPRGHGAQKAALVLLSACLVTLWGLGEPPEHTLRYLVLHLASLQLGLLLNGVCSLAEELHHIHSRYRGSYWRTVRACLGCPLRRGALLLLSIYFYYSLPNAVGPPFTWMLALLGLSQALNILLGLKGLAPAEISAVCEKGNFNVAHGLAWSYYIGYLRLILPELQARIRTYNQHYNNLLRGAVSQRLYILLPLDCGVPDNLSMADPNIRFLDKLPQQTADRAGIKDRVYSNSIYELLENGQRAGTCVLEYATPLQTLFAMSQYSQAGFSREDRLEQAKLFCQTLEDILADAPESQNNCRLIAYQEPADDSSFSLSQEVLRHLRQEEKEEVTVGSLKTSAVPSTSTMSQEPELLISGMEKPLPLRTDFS
Method: Human STING agonist activity was evaluated by using THP1-Dual™ cells (HAQ-mutated) (InvivoGen, CA, US), with which the activation of the pathway of interferon regulatory factor-3 (IRF3), which is present in the downstream of the STING pathway, can be confirmed.
Assay was performed as follows. First, a test compound diluted with PBS was aliquoted into a transparent 96-well plate (Corning Incorporated, NY, US) at 20 μL/well. Subsequently, reporter cells suspended in assay buffer (an RPMI1640 medium or DMEM medium containing 10% bovine serum albumin) were added at 180 μL/well (1×10^5 cells/well) to initiate stimulation. After the cells were cultured in an environment at 37° C. and 5% CO2 for 24 hours, the resultant was centrifuged to collect the supernatant. To a white 384-well plate, 6 μL of the supernatant collected was added, and 15 μL of QUANTI-Luc (InvivoGen) solution was added thereto. After the resultant was well mixed together, emission was measured by using a plate reader (PerkinElmer, Inc., MA, US).

[2] = biological target: T2, HisAviTEV-hSTING (139-342) human AQ-mutated protein (Homo sapiens, UniProt Q86WV6, G230A/H232R/R293Q); assay: Protein thermal shift assay, STING C-terminal binding domain protein; conditions: test compound final concentration 0.5 mM
T2 construct: made in house; host or cells: E. coli Rosetta 2 (DE3), co-expressed with BirA (1-321)
T2 sequence (Q86WV6 with tags, fused parts or gaps G230A/H232R/R293Q): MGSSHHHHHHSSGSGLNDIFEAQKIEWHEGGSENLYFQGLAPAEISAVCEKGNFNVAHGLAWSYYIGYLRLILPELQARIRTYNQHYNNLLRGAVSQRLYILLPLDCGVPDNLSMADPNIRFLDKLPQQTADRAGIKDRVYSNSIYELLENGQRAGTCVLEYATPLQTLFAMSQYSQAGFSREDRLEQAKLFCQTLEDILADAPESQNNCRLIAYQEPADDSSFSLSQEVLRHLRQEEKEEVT

[3] = biological target: T3, HisAviTEV-hSTING (139-342) human wild-type protein (Homo sapiens, UniProt Q86WV6, H232R); assay: as above; conditions: test compound final concentration 0.5 mM
T3 construct: made in house; host or cells: E. coli Rosetta 2 (DE3), co-expressed with BirA (1-321)
T3 sequence (Q86WV6 with tags, fused parts or gaps H232R): as the sequence (Q86WV6 with tags, fused parts or gaps G230A/H232R/R293Q) above, with A131G, Q194R counted along it

[4] = biological target: T4, HisAviTEV-hSTING (139-342) human REF-mutated protein (Homo sapiens, UniProt Q86WV6); assay: as above; conditions: test compound final concentration 0.5 mM
T4 construct: made in house; host or cells: E. coli Rosetta 2 (DE3), co-expressed with BirA (1-321)
T4 sequence (Q86WV6 with tags, fused parts or gaps, change not shown): as the sequence (Q86WV6 with tags, fused parts or gaps G230A/H232R/R293Q) above, with A131G, R133H, Q194R counted along it

[5] = THP1-Dual cells IRF EC50, THP1-Dual cells (HAQ-mutated)

T1 sequence (Q3TBT3 with tags, fused parts or gaps limits assumed): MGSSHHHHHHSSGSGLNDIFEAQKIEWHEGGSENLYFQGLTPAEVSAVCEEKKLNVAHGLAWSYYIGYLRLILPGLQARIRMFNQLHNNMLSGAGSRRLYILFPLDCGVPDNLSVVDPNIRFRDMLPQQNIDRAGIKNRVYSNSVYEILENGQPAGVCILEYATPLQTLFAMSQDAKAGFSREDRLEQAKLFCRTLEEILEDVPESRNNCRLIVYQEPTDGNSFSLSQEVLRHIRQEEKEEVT

| SMILES | ΔTm at 500 µM [1] [°C] | EC50 (Human STING; [5]) [µM] | ΔTm at 500 µM [2] [°C] | ΔTm at 500 µM [3] [°C] | ΔTm at 500 µM [4] [°C] | ΔTm Ms-WT [1] [°C] | ΔTm Hu-AQ [2] [°C] | ΔTm Hu-WT [3] [°C] | ΔTm Hu-REF [4] [°C] | EC50 (Human STING; read-out: THP1-Dual cells IRF EC50, THP1-Dual cells (HAQ-mutated)) [µM] |
| --- | --- | --- | --- | --- | --- | --- | --- | --- | --- | --- |
| Nc1ncnc2c1ncn2[C@@H]1O[C@@H]2COP(=O)(S)O[C@H]3[C@@H](O)[C@H](n4cc5c6c(ncnc64)NCCC5)O[C@@H]3COP(=O)(S)O[C@@H]1[C@@H]2O (single isomer, unassigned) [1a] | 14.3 | 5.9 | 12 | 8.4 | 3.4 |  |  |  |  |  |
| Nc1nc2c(ncn2[C@@H]2O[C@@H]3COP(=O)(S)O[C@H]4[C@@H](O)[C@H](n5cc6c7c(ncnc75)NCCC6)O[C@@H]4COP(=O)(S)O[C@@H]2[C@@H]3O)c(=O)[nH]1 (single isomer, unassigned) [4a] | 17.5 | 2.1 | 17 | 11.5 | 5.2 |  |  |  |  |  |
| Nc1nc2c(ncn2[C@@H]2O[C@@H]3COP(=O)(S)O[C@H]4[C@@H](O)[C@H](n5cc6c7c(ncnc75)NCCC6)O[C@@H]4COP(=O)(S)O[C@@H]2[C@@H]3O)c(=O)[nH]1 (single isomer, unassigned) [4b] |  | 1.5 |  |  |  | 14.9 | 13.1 | 9.8 | 3.5 |  |
| O=C(CO)NCCn1cnc2c(ncn2[C@@H]2O[C@@H]3COP(=O)(S)O[C@H]4[C@@H](O)[C@H](n5cc6c7c(ncnc75)NCCC6)O[C@@H]4COP(=O)(S)O[C@@H]2[C@@H]3O)c1=O (single isomer, unassigned) [7a] | 11.5 | 3.5 | 9.7 | 8 | 3.9 |  |  |  |  |  |
| O=C(CO)NCCn1cnc2c(ncn2[C@@H]2O[C@@H]3COP(=O)(S)O[C@H]4[C@@H](O)[C@H](n5cc6c7c(ncnc75)NCCC6)O[C@@H]4COP(=O)(S)O[C@@H]2[C@@H]3O)c1=O (single isomer, unassigned) [7b] |  | 6.1 |  |  |  | 13.2 | 9.5 | 7.2 | 2.8 |  |
| NCCNc1nc(N)c2ncn([C@@H]3O[C@@H]4COP(=O)(S)O[C@H]5[C@@H](O)[C@H](n6cc7c8c(ncnc86)NCCC7)O[C@@H]5COP(=O)(S)O[C@@H]3[C@@H]4O)c2n1 (single isomer, unassigned) [8a] | 11.5 | 3.1 | 10.8 | 7.6 | 2.8 |  |  |  |  |  |
| Nc1nc(CO)nc2c1ncn2[C@@H]1O[C@@H]2COP(=O)(S)O[C@H]3[C@@H](O)[C@H](n4cc5c6c(ncnc64)NCCC5)O[C@@H]3COP(=O)(S)O[C@@H]1[C@@H]2O (single isomer, unassigned) [12a] | 11.9 |  | 9.6 | 8 | 3 |  |  |  |  |  |
| O=P1(S)OC[C@H]2O[C@@H](n3cc4c5c(ncnc53)NCCC4)[C@H](O)[C@@H]2OP(=O)(S)OC[C@H]2O[C@@H](n3cnc4c(CO)ncnc43)[C@H](O1)[C@@H]2O (single isomer, unassigned) [17a] | 12.6 | 4.4 | 10.7 | 7.3 | 2.7 |  |  |  |  |  |
| O=P1(S)OC[C@H]2O[C@@H](n3cc4c5c(ncnc53)NCCC4)[C@H](O)[C@@H]2OP(=O)(S)OC[C@H]2O[C@@H](n3cnc4c(CO)ncnc43)[C@H](O1)[C@@H]2O (single isomer, unassigned) [17b] |  | 1 |  |  |  | 12.6 | 10.4 | 7.4 | 2.2 |  |
| Nc1ncnc2c1ncn2[C@@H]1O[C@@H]2COP(=O)(S)O[C@H]3[C@@H](O)[C@H](n4cc5c6c(ncnc64)OCCC5)O[C@@H]3COP(=O)(S)O[C@@H]1[C@@H]2O (single isomer, unassigned) [20a] | 12.4 |  | 9.7 | 7.5 | 3.7 |  |  |  |  |  |
| Nc1ncnc2c1ncn2[C@@H]1O[C@@H]2COP(=O)(S)O[C@H]3[C@@H](O)[C@H](n4cc5c6c(ncnc64)SCCC5)O[C@@H]3COP(=O)(S)O[C@@H]1[C@@H]2O (single isomer, unassigned) [23a] | 15.6 | 2.6 | 12.2 | 9.7 | 4.2 |  |  |  |  |  |
| O=c1[nH]cnc2c1ncn2[C@@H]1O[C@@H]2COP(=O)(S)O[C@H]3[C@@H](O)[C@H](n4cc5c6c(ncnc64)NCCC5)O[C@@H]3COP(=O)(S)O[C@@H]1[C@@H]2O (single isomer, unassigned) [25a] | 16 | 1.3 | 15 | 11.4 | 6.2 |  |  |  |  |  |
| O=c1[nH]cnc2c1ncn2[C@@H]1O[C@@H]2COP(=O)(S)O[C@H]3[C@@H](O)[C@H](n4cc5c6c(ncnc64)NCCC5)O[C@@H]3COP(=O)(S)O[C@@H]1[C@@H]2O (single isomer, unassigned) [25b] |  | 0.9 |  |  |  | 15.8 | 13.1 | 10.6 | 4.6 |  |
| O=c1c2ncn([C@@H]3O[C@@H]4COP(=O)(S)O[C@H]5[C@@H](O)[C@H](n6cc7c8c(ncnc86)NCCC7)O[C@@H]5COP(=O)(S)O[C@@H]3[C@@H]4O)c2ncn1CCCO (single isomer, unassigned) [26b] | 14.1 | 1.2 | 11.5 | 9.1 | 3.9 |  |  |  |  |  |
| O=c1c2ncn([C@@H]3O[C@@H]4COP(=O)(S)O[C@H]5[C@@H](F)[C@H](n6cc7c8c(ncnc86)NCCC7)O[C@@H]5COP(=O)(S)O[C@@H]3[C@@H]4O)c2ncn1CCO (single isomer, unassigned) [34a] | 20.3 | 0.2 | 18.9 | 14.7 | 8.8 |  |  |  |  |  |
| NCCn1cnc2c(ncn2[C@@H]2O[C@@H]3COP(=O)(S)O[C@H]4[C@@H](F)[C@H](n5cc6c7c(ncnc75)NCCC6)O[C@@H]4COP(=O)(S)O[C@@H]2[C@@H]3O)c1=O (single isomer, unassigned) [35a] | 13.5 | 2 | 13.1 | 11 | 6.6 |  |  |  |  |  |
| NCCn1cnc2c(ncn2[C@@H]2O[C@@H]3COP(=O)(S)O[C@H]4[C@@H](F)[C@H](n5cc6c7c(ncnc75)NCCC6)O[C@@H]4COP(=O)(S)O[C@@H]2[C@@H]3O)c1=O (single isomer, unassigned) [35b] |  | 3.4 |  |  |  | 14.2 | 12.6 | 10.3 | 5.8 |  |
| O=C(CO)NCCn1cnc2c(ncn2[C@@H]2O[C@@H]3COP(=O)(S)O[C@H]4[C@@H](F)[C@H](n5cc6c7c(ncnc75)NCCC6)O[C@@H]4COP(=O)(S)O[C@@H]2[C@@H]3O)c1=O (single isomer, unassigned) [36a] | 15.4 | 2 | 13.3 | 10.8 | 5.8 |  |  |  |  |  |
| O=C(CO)NCCn1cnc2c(ncn2[C@@H]2O[C@@H]3COP(=O)(S)O[C@H]4[C@@H](F)[C@H](n5cc6c7c(ncnc75)NCCC6)O[C@@H]4COP(=O)(S)O[C@@H]2[C@@H]3O)c1=O (single isomer, unassigned) [36b] |  |  |  |  |  | 19.3 | 11.8 | 10.1 | 5.5 | 2 |
| NCCNc1nc(N)c2ncn([C@@H]3O[C@@H]4COP(=O)(S)O[C@H]5[C@@H](F)[C@H](n6cc7c8c(ncnc86)NCCC7)O[C@@H]5COP(=O)(S)O[C@@H]3[C@@H]4O)c2n1 (single isomer, unassigned) [37a] | 15.3 | 0.98 | 13.6 | 11.2 | 5.2 |  |  |  |  |  |
